The test system of test [1] is cultured human mast cells (CHMC). Kind of test: CHMC low cell density IgE activation: tryptase and LTC4 assays. In kind it is cell-based. Particulars: Low Density CHMC, anti-IgE activation, tryptase readout, read-out: CHMC anti-IgE Tryptase. In short, it runs like this: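 Degranulation measured after 30 min anti-IgE challenge at 37° C of CHMC plated at 1000-1500 cells/well following 1 h preincubation. Readouts: LTC4 by ELISA on donor-specific diluted supernatants, and tryptase activity from a 30 min room-temperature substrate reaction.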

Test [2] shares this test system. Kind of test: CHMC low cell density ionomycin activation: tryptase assay. The format is cell-based. The conditions noted are these: Low Density CHMC, ionomycin activation, tryptase readout, read-out: CHMC Ionomycin Tryptase.

We go through 32 compounds from patent US10828301B2, “2,4-pyrimidinediamine compounds and their uses” (Rigel Pharmaceuticals, Inc, priority 2002, dated 2020).

SMILES strings stand for the structures.

Take `COC(=O)Cn1ncc2cc(Nc3ncc(F)c(Nc4cccc(O)c4)n3)ccc21` [Compound R935237, 5-Fluoro-N4-(3-hydroxyphenyl)-N2-[1-(methoxycarbonyl)methyl-indazoline-5-yl]-2,4-pyrimidinediamine]: the IC50 was 0.24 µM in test [1] and above 10 µM in test [2].

Turning to `COC(=O)c1cc2cc(Nc3ncc(F)c(Nc4cccc(C(C)(C)C)c4)n3)ccc2o1` [Compound R940281, N4-(3-tert-Butylphenyl)-5-fluoro-N2-(2-methoxycarbonylbenzofur-5-yl)-2,4-pyrimidinediamine], the IC50 in test [1] (Homo sapiens, Mast cell) came to 0.525 µM; in test [2] (Homo sapiens, Mast cell), 5.53 µM.

For `COC(=O)Cn1ncc2cc(Nc3ncc(F)c(Nc4ccc(OC(C)C)cc4)n3)ccc21` [Compound R935222, 5-Fluoro-N4-(4-isopropoxyphenyl)-N2-[1-(methoxycarbonyl)methyl-indazoline-5-yl]-2,4-pyrimidinediamine], the IC50 in test [1] is 0.52 µM; in test [2] it was above 10 µM.

On to `Cc1cc(Nc2ncc(F)c(Nc3ccc4c(c3)N=CCO4)n2)cc(Cl)c1O` [Compound R909255, N4-(1,4-Benzoxazin-6-yl)-N2-(3-chloro-4-hydroxy-5-methylphenyl)-5-fluoro-2,4-pyrimidinediamine], for which the IC50 in test [1] (Homo sapiens, Mast cell) was 0.244 µM; in test [2] (Homo sapiens, Mast cell), above 10 µM.

As to `c1cc(Nc2ccc3c(c2)OCCO3)nc(Nc2ccc3c(c2)OCCO3)n1` [Compound R926243, N2,N4-Bis(3,4-ethylenedioxyphenyl)-2,4-pyrimidinediamine], the IC50 in test [1] (Homo sapiens, Mast cell) is 3.1 µM; in test [2] (Homo sapiens, Mast cell), above 10 µM.

For the compound `CC(C)(C)C(=O)Nc1cccc(Nc2ncc(F)c(Nc3cccc(O)c3)n2)c1` [Compound R940275, N2-(3-tert-Butylcarbonylaminophenyl)-N4-(3-hydroxyphenyl)-5-fluoro-2,4-pyrimidinediamine], the IC50 was 0.862 µM in test [1] (Homo sapiens, Mast cell) and above 10 µM in test [2] (Homo sapiens, Mast cell).

As to `CCOc1ccc(Nc2ncc(F)c(Nc3ccc(OCC)c(N)c3)n2)cc1N` [Compound R950139, N2,N4-Bis(3-amino-4-ethoxyphenyl)-5-fluoro-2,4-pyrimidinediamine], the IC50 in test [1] (Homo sapiens, Mast cell) is 1.38 µM; in test [2] (Homo sapiens, Mast cell) it was above 10 µM.

With `CC(C)(C)OC(=O)C=Nc1cccc(Nc2ncc(F)c(Nc3cccc(N)c3)n2)c1` [Compound R950178, N4-(3-Aminophenyl)-N2-(3-tert-butoxycarbonylmethyleneaminophenyl)-5-fluoro-2,4-pyrimidinediamine], the IC50 is 0.688 µM in test [1] (Homo sapiens, Mast cell) and above 10 µM in test [2] (Homo sapiens, Mast cell).

As for `CC(C)(C)c1cccc(Nc2ncc(F)c(Nc3cccc(O)c3)n2)c1` [Compound R940257, N2-(3-tert-Butylphenyl)-5-fluoro-N4-(3-hydroxyphenyl)-2,4-pyrimidinediamine], the IC50 in test [1] (Homo sapiens, Mast cell) is 0.667 µM; in test [2] (Homo sapiens, Mast cell), above 10 µM.

Turning to `c1ccc(-c2cnc(Nc3ccc4c(c3)OCCO4)nc2Nc2ccc3c(c2)OCCO3)cc1` [Compound R925784, N2,N4-Bis(3,4-ethylenedioxyphenyl)-5-phenyl-2,4-pyrimidinediamine], the IC50 was 3.2 µM in test [1] (Homo sapiens, Mast cell) and above 10 µM in test [2] (Homo sapiens, Mast cell).

On to `Oc1c(Cl)cc(Nc2ncc(F)c(Nc3cc(Cl)c(O)c(Cl)c3)n2)cc1Cl` [Compound R940215, N2,N4-Bis-(3,5-dichloro-4-hydroxyphenyl)-5-fluoro-2,4-pyrimidinediamine], for which the IC50 in test [1] (Homo sapiens, Mast cell) is 0.845 µM; in test [2] (Homo sapiens, Mast cell), above 10 µM.

As for `CCOC(=O)c1cc2cccc(Nc3cc(Nc4ccc5c(c4)OCCO5)c(F)cn3)c2[nH]1` [Compound R926808, N2-(2-Ethoxycarbonylindol-7-yl)-N4-(3,4-ethylenedioxyphenyl)-5-fluoro-2,4-pyridinediamine], the IC50 was 0.368 µM in test [1] (Homo sapiens, Mast cell) and above 10 µM in test [2] (Homo sapiens, Mast cell).

`CNC(=O)COc1cccc(Nc2ncc(F)c(Nc3ccc4c(c3)C(=NO)CCC4)n2)c1` [Compound R926948, 5-Fluoro-N4-(1,2,3,4-tetrahydro-1-hydroxyiminonaphthalen-7-yl)-N2-[3-[(N-methylamino)carbonylmethyleneoxy]phenyl]-2,4-pyrimidinediamine]: the IC50 in test [1] is 0.246 µM; in test [2], above 10 µM.

On to `Oc1cccc(Nc2ncc(F)c(NCCSCc3c(F)cccc3Cl)n2)c1` [Compound R926724, N4-[2-[(2-Chloro-6-fluorobenzyl)thio]ethyl]-5-fluoro-N2-(3-hydroxyphenyl)-2,4-pyrimidinediamine], for which the IC50 in test [1] (Homo sapiens, Mast cell) was 2.06 µM; in test [2] (Homo sapiens, Mast cell), above 10 µM.

Turning to `CNC(=O)C=Nc1cccc(Nc2ncc(F)c(Nc3cccc(O)c3)n2)c1` [Compound R950217, 5-Fluoro-N4-(3-hydroxyphenyl)-N2-[3-(N-methylamino)carbonylmethyleneaminophenyl]-2,4-pyrimidinediamine], the IC50 in test [1] (Homo sapiens, Mast cell) is 0.34 µM; in test [2] (Homo sapiens, Mast cell) it was above 10 µM.

For `CC(C)Oc1ccc(Nc2nc(Nc3ccc(OCC(O)CO)cc3)ncc2F)cc1` (stereo not shown) [Compound R935175, N2-[4-(2,3-Dihydroxypropoxy)phenyl]-5-fluoro-N4-(4-isopropoxyphenyl)-2,4-pyrimidinediamine], the IC50 in test [1] (Homo sapiens, Mast cell) is 0.885 µM; in test [2] (Homo sapiens, Mast cell), above 10 µM.

For the compound `N#Cc1cnc(Nc2ccc3c(c2)OCCO3)nc1Nc1ccc2c(c1)OCCO2` [Compound R925773, N2,N4-Bis(3,4-ethylenedioxyphenyl)-5-cyano-2,4-pyrimidinediamine], the IC50 in test [1] (Homo sapiens, Mast cell) was 0.673 µM; in test [2] (Homo sapiens, Mast cell), above 10 µM.

As for `CC(C)(C)c1ccc(Nc2nc(Nc3ccc4c(c3)CC(C(=O)O)O4)ncc2F)cc1` (stereo not shown) [Compound R926720, N4-(4-tert-Butylphenyl)-5-fluoro-N2-[2,3-dihydro-2-(carboxy)benzofuran-5-yl]-2,4-pyrimidinediamine], the IC50 in test [1] (Homo sapiens, Mast cell) is 1.55 µM; in test [2] (Homo sapiens, Mast cell), above 10 µM.

As to `COC(=O)C1Cc2cc(Nc3ncc(F)c(Nc4ccc(OC)c(Cl)c4)n3)ccc2O1` (stereo not shown) [Compound R926951, N4-(3-Chloro-4-methoxyphenyl)-5-fluoro-N2-[2,3-dihydro-2-(methoxycarbonyl)benzofuran-5-yl]-2,4-pyrimidinediamine], the IC50 in test [1] (Homo sapiens, Mast cell) was 0.183 µM; in test [2] (Homo sapiens, Mast cell), above 10 µM.

Consider `OCc1cccc(Nc2ncc(F)c(Nc3cccc(CO)c3)n2)c1` [Compound R925757, N2,N4-Bis(3-(hydroxymethyl)phenyl)-5-fluoro-2,4-pyrimidinediamine], for which the IC50 is 2.8 µM in test [1] (Homo sapiens, Mast cell) and above 10 µM in test [2] (Homo sapiens, Mast cell).

Consider `Nc1cccc(Nc2ncc(F)c(Nc3cccc(O)c3)n2)c1` [Compound R950227, N2-(3-Aminophenyl)-5-fluoro-N4-(3-hydroxyphenyl)-2,4-pyrimidinediamine], for which the IC50 in test [1] (Homo sapiens, Mast cell) was 1.03 µM; in test [2] (Homo sapiens, Mast cell), above 10 µM.

Consider `Cc1c(O)cccc1Nc1ncc(F)c(Nc2cccc(O)c2C)n1` [Compound R945038, N2,N4-Bis(3-hydroxy-2-methylphenyl)-5-fluoro-2,4-pyrimidinediamine], for which the IC50 in test [1] (Homo sapiens, Mast cell) was above 10 µM; in test [2] (Homo sapiens, Mast cell), above 10 µM.

On to `COc1ccc(C(Nc2ncc(F)c(NC(c3ccc(OC)cc3)c3ccc(OC)cc3)n2)c2ccc(OC)cc2)cc1` [Compound R935004, N2,N4-Bis[[di-(4-methoxyphenyl)]methyl]-5-fluoro-2,4-pyrimidinediamine], for which the IC50 was above 10 µM in test [1] (Homo sapiens, Mast cell) and above 10 µM in test [2] (Homo sapiens, Mast cell).

In the case of `CC(Nc1nc(Nc2cccc(O)c2)ncc1F)c1ccc(F)cc1` (racemic) [Compound R935021, (±)-5-Fluoro-N4-[1-(4-fluorophenyl)ethyl]-N2-(3-hydroxyphenyl)-2,4-pyrimidinediamine], the IC50 in test [1] (Homo sapiens, Mast cell) was above 10 µM; in test [2] (Homo sapiens, Mast cell) it was above 10 µM.

In the case of `CNc1ncc(F)c(Nc2ccc3c(c2)OCCO3)n1` [Compound R950189], the IC50 in test [1] was 10 µM; in test [2] it was above 10 µM.

As to `Oc1cccc(Nc2nc(NCc3ccccn3)ncc2F)c1` [Compound R945166, 5-Fluoro-N4-(3-hydroxyphenyl)-N2-(2-pyridylmethyl)-2,4-pyrimidinediamine], the IC50 in test [1] (Homo sapiens, Mast cell) is above 10 µM; in test [2] (Homo sapiens, Mast cell), above 10 µM.

As to `Fc1cnc(Nc2ccc3[nH]ccc3c2)nc1Nc1ccc2[nH]ccc2c1` [Compound R926582, N2,N4-Bis(indol-5-yl)-5-fluoro-2,4-pyrimidinediamine], the IC50 was 1.3 µM in test [1] (Homo sapiens, Mast cell) and above 10 µM in test [2] (Homo sapiens, Mast cell).

Regarding `Fc1cnc(Nc2ccc3c(c2)OCO3)nc1Nc1ccc2c(c1)OCO2` [Compound R925776, N2,N4-Bis(3,4-methylenedioxyphenyl)-5-fluoro-2,4-pyrimidinediamine], the IC50 in test [1] (Homo sapiens, Mast cell) was 2.1 µM; in test [2] (Homo sapiens, Mast cell), above 10 µM.

Turning to `O=C1CCNC2=COc3ccc(Nc4nc(Nc5cccc(O)c5)ncc4F)cc3N12` [Compound R945237, 5-Fluoro-N2-(3-hydroxyphenyl)-N4-[1-oxo-1,2,3,6-tetrahydropyrimido[2,1-c][1,4]benzoxazin-9-yl]-2,4-pyrimidinediamine], the IC50 in test [1] (Homo sapiens, Mast cell) was 0.461 µM; in test [2] (Homo sapiens, Mast cell) it was above 10 µM.

Regarding `Clc1nc(Nc2ccc3c(c2)OCCO3)nc(Nc2ccc3c(c2)OCCO3)c1Cl` [Compound R926467, N2,N4-Bis(3,4-ethylenedioxyphenyl)-5,6-dichloro-2,4-pyrimidinediamine], the IC50 was 1.18 µM in test [1] (Homo sapiens, Mast cell) and 8.8 µM in test [2] (Homo sapiens, Mast cell).

For `Oc1cccc(Nc2nc(NCc3cccnc3)ncc2F)c1` [Compound R945165, 5-Fluoro-N4-(3-hydroxyphenyl)-N2-(3-pyridylmethyl)-2,4-pyrimidinediamine], the IC50 was above 10 µM in test [1] (Homo sapiens, Mast cell) and above 10 µM in test [2] (Homo sapiens, Mast cell).

For the compound `CCNC(=O)Nc1cccc(Nc2ncc(F)c(Nc3cccc(NC(=O)NCC)c3)n2)c1` [Compound R945045, N2,N4-Bis[3-(ethylaminocarbonylamino)phenyl]-5-fluoro-2,4-pyrimidinediamine], the IC50 in test [1] (Homo sapiens, Mast cell) is above 10 µM; in test [2] (Homo sapiens, Mast cell) it was above 10 µM.
